# Test system: PANC-1-Pac cells
# Assay: MTT cell viability and ZIP synergy in paclitaxel-resistant PANC-1-Pac cells
# Format: cell-based, human
# Conditions: 72 h with drug + 72 h fresh media
# Description: (§1) A paclitaxel-sensitive human PDAC cell line, PANC-1, was obtained (ATCC, CRL-1469) and the derived paclitaxel-resistant PANC-1-Pac cell line was established by gradually increasing concentrations of paclitaxel over a period of 2–4 months. Standard MTT and crystal violet assays were applied to evaluate the effect of treatment with either combinations of SCO-101 and paclitaxel or SRPK1-inhibitor and paclitaxel. Details are presented in the Online Resource.
# Statistical analyses were mainly descriptive and included mean, median, range, and 95% CIs. Kaplan–Meier plots were constructed using Stata version 18 (StataCorp, 2023). In the preclinical study, the zero interaction potency (ZIP) synergy score was calculated as described by Yadav et al., to quantify the deviation from the expectation of zero interaction between drugs. A ZIP synergy score above 10 indicates synergy.
# as §1, with “line PANC-1” for “line, PANC-1,”, “2-4” for “2–4”, “SCO-101/paclitaxel” for “SCO-101 and paclitaxel”, “SRPK1 inhibitor/paclitaxel.” for “SRPK1-inhibitor and paclitaxel. Details are presented in the Online Resource.”
# The selection began at 1 nM, increased to 2 nM and 4 nM, and ended at 8 nM. For each drug concentration the cells were kept for three passages. To evaluate the effect of the treatment either a Crystal Violet assay or MTT (3-(4,5-dimethylthiazol-2-yl)-2,5-diphenyltetrazolium bromide) assay were applied.
# The MTT was conducted according to standard conditions. In short, cells were seeded at a density of 7,000 cells/well into a 96-well. One day after seeding, the cells were experimentally treated. Control conditions consisted of either growth medium (‘untreated’) or DMSO diluted in growth medium. All treatments were performed in triplicates. The cells were then kept in the CO2 incubator at 37 °C for 72 hours and plates were incubated with 100μl 1:10 MTT (0.5 mg/ml dissolved in phosphate buffered saline) for 3 hours and hereafter stopped using 100μl/well stop buffer (50g Sodium Dodecyl Sulphate, 245 mL MiliQ H2O, 5mL 1.0 N HCl was added to dissolve the formazan crystals overnight. Optical densities were measured at 570 and 670 nm.
# Experiments with 4 different concentrations of either SCO-101 or paclitaxel and their combinations were applied to test for synergy among these two compounds in both the PANC-1 parental and -Paclitaxel resistant cells. SCO-101 was applied in 10, 20, 40 and 50 µM whereas paclitaxel was tested in 5, 10, 15 and 20 nM for a total of 144 h, where drug was only present in the first 72h (sFig 2). The SRPK1 inhibitor SPHINX31 was tested at 0.1; 0.5; 1 and 5 µM. The SRPK1 inhibitor SRPIN was tested at 1; 5; 10 and 50 µM. Both inhibitors were tested in combination with 5, 10, 15 and 20 nM Paclitaxel.
# PANC-1-Pac cells treated with paclitaxel and SRPIN340 with four different concentrations of each for a total of 144 hours. Cell viability was evaluated by MTT assays and reported as percentage of untreated control (medium). Error bars indicate percentage standard deviation.
compound,measurement,setting,value
O=C(Nc1cc(C(F)(F)F)cc(C(F)(F)F)c1)Nc1ccc(Br)cc1-c1nnn[nH]1 [SCO-101],"effect on PANC-1-Pac cells (cell viability), drug alone",,dose-dependent effect
same,ZIP synergy score with paclitaxel,"PANC-1-Pac cells, SCO-101 + paclitaxel, score above 10 indicates synergy",16.795

# Source: paper PMC12048447, “PANTAX: a phase Ib clinical trial of the efflux pump inhibitor SCO-101 in combination with gemcitabine and nab-paclitaxel in non-resectable or metastatic pancreatic cancer” (Investigational New Drugs, 2025)
